In US7000348B2, “Method and composition for tree root colonization” (Vamtech, LLC, priority 2003, dated 2006):
“Also recorded” adds a separate entry of the source.

Key:
Format in all cases: in vivo
[1] = tested on: R. rubescens; experiment: Mycorrhizal colonization of Ponderosa pine seedlings by Rhizopogon (root tip tally); conditions: potassium formononetinate 60 mg/L with R. rubescens spores vs spores alone
Procedure: (§1) Ponderosa pine seeds were sown in a soilless mix (50:50 peat:vermiculite) in 2 cm^3 cells in STRYOBLOCK™ containers (Beaver Plastics, Corvallis, Oreg.) inside the greenhouse at the J. Herbert Stone Nursery in Central Point, Oreg. Eight weeks after germination, all emerging ponderosa pine seedlings were inoculated with 100,000 spores each of the ectomycorrhizal fungus R. rubescens using a liquid suspension applied via a traveling irrigation boom. Liquid spore suspension was prepared by maceration of R. rubescens sporocarps in distilled water for 10 min, followed by serial dilution with distilled water. Spore concentrations were determined using a hemacytometer. Soluble fertilizer (250 ppm N, 60 ppm P and 158 ppm K plus micronutrients) was applied with irrigation for optimum growth. Temperatures were held between 65° F. and 75° F. in the greenhouse. The seedlings were hardened off about six months after sowing by reducing the amount of irrigation water and fertilizer in it (to 50 ppm N, 31 ppm P and 150 ppm K plus micronutrients). No pesticides were used on the crop during this period. Ponderosa pine seedlings were then each inoculated again with 100,000 spores of R. rubescens using the same inoculation procedure. […]
(§2) All trials were conducted in a randomized complete block design. […] Means comparisons were calculated using Fisher's LSD (least significant difference). […]

[2] = tested on: R. parksii; experiment: Mycorrhizal colonization of Douglas-fir roots by Rhizopogon (root tip tally)
Excerpt: (§3) Douglas-fir seeds were sown in 2 cm^3 in cells in Stryoblock™ containers filled with soilless mix (50:50 peat:vermiculite) in the greenhouse at the J. Herbert Stone Nursery in Central Point, Oreg. Soluble fertilizer applications, temperatures, and hardening off procedure were the same as those described for Ponderosa pine above. No pesticides were used on the crop during this period, and no mycorrhizal inoculum was applied prior to applications of treatments.
(§4) Eight months after sowing, fourteen Douglas-fir seedlings were randomly sampled (2 or 3 from 6 trays) to determine colonization by the mycorrhizal fungus R. parksii. No colonization by R. parksii was present at this time. […]
as §2

[3] = tested on: Ponderosa pine seedlings; experiment: Caliper diameter of Ponderosa pine seedlings; conditions: potassium formononetinate 60 mg/L added to R. rubescens inoculation
Procedure: as §1, with “greenhouse.” for “greenhouse. The seedlings were hardened off about six months after sowing by reducing the amount of irrigation water and fertilizer in it (to 50 ppm N, 31 ppm P and 150 ppm K plus micronutrients). No pesticides were used on the crop during this period. Ponderosa pine seedlings were then each inoculated again with 100,000 spores of R. rubescens using the same inoculation procedure.”
(§5) The diameter of all seedlings in all of the treatments was then measured with a caliper. […] Samples were analyzed for total nitrogen and phosphorus (Kjeldahl digest with ammonia and orthophosphate read on an auto-analyzer), and extractable potassium (microwave digestion) with inductively couples argon plasma spectrometer (ICPMS).
as §2

[4] = tested on: Douglas-fir seedlings; experiment: Caliper diameter of Douglas-fir seedlings
Excerpt: as §3, §4, §5, §2

[5] = tested on: Ponderosa pine seedlings; experiment: Foliar nutrient analysis of Ponderosa pine needles; conditions: 60 mg/L, vs seedlings treated with R. rubescens alone
Procedure: as §1, with “greenhouse.” for “greenhouse. The seedlings were hardened off about six months after sowing by reducing the amount of irrigation water and fertilizer in it (to 50 ppm N, 31 ppm P and 150 ppm K plus micronutrients). No pesticides were used on the crop during this period. Ponderosa pine seedlings were then each inoculated again with 100,000 spores of R. rubescens using the same inoculation procedure.”
as §5, §2

[6] = tested on: Douglas-fir seedlings; experiment: Foliar nutrient analysis of Douglas-fir needles
Excerpt: as §3
Eight months after sowing, fourteen Douglas-fir seedlings were randomly sampled (2 or 3 from 6 trays) to determine colonization by the mycorrhizal fungus R. parksii. No colonization by R. parksii was present at this time. The treatments applied to three trays of 20 seedlings each were a control with no potassium formononetinate or mycorrhizal inoculation (C), potassium formononetinate only at 20 mg/L of soilless mix (M-20), mycorrhizal inoculation only at 100,000 R. parksii spores/cavity applied with a graduated pipette (R-100), mycorrhizal inoculation with R. parksii at 100,000 spores per cavity plus potassium formononetinate at 20 mg/L of soilless mix (0.11 per 60 seedlings) (M-20+R-100), mycorrhizal inoculation with R. parksii at 100,000 spores per cavity plus potassium formononetinate at 60 mg/L of soilless mix (0.33 per 60 seedlings) (M-60+R-100), and mycorrhizal inoculation with R. parksii at 50,000 spores cavity plus potassium formononetinate at 20 mg/L of soilless mix (M-20+R-50). Potassium formononetinate was provided by VAMTech L.L.C., Lansing, Mich.
The diameter of all seedlings in all of the treatments was then measured with a caliper. Needle samples for Ponderosa pine and Douglas-fir were collected from 4 randomly selected seedlings in each treatment for foliar analysis. Samples were analyzed for total nitrogen and phosphorus (Kjeldahl digest with ammonia and orthophosphate read on an auto-analyzer), and extractable potassium (microwave digestion) with inductively couples argon plasma spectrometer (ICPMS).
All trials were conducted in a randomized complete block design. Analyses of variance (ANOVA) were performed separately for seedling caliper, nutrient content, and mycorrhizal colonization (Steel and Torrie 1980). Means comparisons were calculated using Fisher's LSD (least significant difference). Residuals from the performed ANOVA's were examined using normal probability plots, tests that the residuals come from normal distributions and plots of residuals versus predicted values. Before analysis, mycorrhizal colonization data as logarithmically transformed to compensate for log-normally distributed values (Steel and Torrie 1980).

[7] = M = potassium formononetinate mg/L, R = R. parksii spores x1000 per cavity
[8] = R. parksii and potassium formononetinate, over the untreated control, but not over R. parksii alone

In the case of `COc1ccc(-c2coc3cc([O-])ccc3c2=O)cc1.[K+]` [potassium formononetinate, potassium salt of 7-hydroxy, 4′-methoxy isoflavone], the “root colonization by Rhizopogon, Ponderosa pine (effect in words)” value [1] was “significantly increased”, the “root colonization by Rhizopogon, Douglas-fir (effect in words)” value ([2]; potassium formononetinate 60 mg/L with R. parksii spores) was “significantly increased” and the “Mycorrhizal colonization of Douglas-fir roots by R. parksii” value ([2]; thirteen months after sowing, M-20/M-60 = potassium formononetinate 20/60 mg/L of soilless mix, R-100/R-50 = 100,000/50,000 R. parksii spores per cavity) was 0%. For the same compound, the “caliper diameter, Ponderosa pine (effect in words)” value [3] was “not significantly increased; also recorded: not significantly affected”, the “caliper diameter, Douglas-fir” value ([4]; thirteen months after sowing, M = potassium formononetinate mg/L, R = R. parksii spores x1000 per cavity) was 0.2 cm and the “caliper size, Douglas-fir (effect in words)” value ([4]; vs untreated control, R. parksii alone or plus potassium formononetinate) was “increased caliper size over the control”. The “nitrogen content, Ponderosa pine (effect in words)” value [5] was “significantly increased”, the “potassium content, Douglas-fir (effect in words)” value ([6]; 60 mg/L plus R. parksii, vs untreated plants, R. parksii alone and any other treatment) was “significantly higher” and the “foliar nitrogen content, Douglas-fir needles” value [6, 7] was 1.29%. The “foliar phosphorous content, Douglas-fir needles” value [6, 7] was 0.15%, the “nitrogen content, Douglas-fir (effect in words)” value [6, 8] was “significantly increased” and the “phosphorus content, Douglas-fir (effect in words)” value [6, 8] was “significantly increased”.
